Measured values: patent US5409953A, “Isolation, structural elucidation and synthesis of novel antineoplastic substances denominated "combretastatins"” (Arizona Board of Regents acting on behalf of Arizona State …, priority 1992, dated 1995)
Values after ≈ are worked out from the molar mass of the structure shown. “Also recorded” adds a separate entry of the source. Where two headings read alike, the source gives them in different places. Values belong to the compound of their own block, whether it stands above or below them.

Assays:
[1] = system: murine P388 lymphocytic leukemia (PS system); assay: inhibition of PS cell line growth (Ed50); assay type: cell-based; conditions: for IC50: Mus musculus
tubulin [2] = assay: in vitro interactions with tubulin (overall comparison); assay type: biochemical
Method: (§1) The assembly reaction at 37° C. was followed turbidimetrically as described by Hamel et al, Biochem. Pharmacal., 32, p.
(§2) Incubation was for 10 minutes at 37° C.

tubulin [3] = assay: binding of [3H]colchicine to tubulin; conditions: Experiment II; for colchicine binding, % of control: 5 μM [3H]colchicine, competing drug at 5 μM, 10 minutes at 37° C.
Method: as §2

tubulin [4] = assay: microtubule assembly (turbidimetric); assay type: biochemical; conditions: for IC50: Experiment I; for inhibition of microtubule assembly / tubulin polymerization in words: comparison with reference agents
Method: as §1

[5] = system: murine P388 lymphocytic leukemia (PS system); assay: PS in vivo life extension; conditions: 2.75-11 mg/kg dose levels
tubulin [6] = conditions: cited from earlier work
NCI astrocytoma = NCI astrocytoma bioassay; assay type: cell-based
[7] = read-out: concentration giving equivalent inhibition of microtubule assembly
[8] = read-out: ID50, drug concentration inhibiting the extent of microtubule assembly by 50%, 37° C., 1.5 mg/ml tubulin, 0.5 mg/ml microtubule-associated proteins

Structure (SMILES): COc1cc(CCc2ccc(OC)c(O)c2)cc(OC)c1 [3'-hydroxy-3,4',5-trimethoxy bibenzyl]
IC50 ([1]; P388 (PS) cell line): 1.7 µg/mL (≈ 5.9 µM)

Structure (SMILES): COc1cc(CCc2ccc(O)cc2)cc(OC)c1OC [4'-hydroxy-3,4,5-trimethoxy bibenzyl]
IC50 ([1]; P388 (PS) cell line): 0.25 µg/mL (≈ 0.867 µM)

Structure (SMILES): COc1cc(/C=C\c2ccc(OC)c(OC(C)=O)c2OC(C)=O)cc(OC)c1OC [Combretastatin A-1 d lacerate, 2', 3'-diacetoxy-4'-methoxy-Z-combretastatin A-1]
IC50 ([1]; P388 (PS) cell line): 2.7 µg/mL (≈ 6.48 µM)
activity relative to parent natural product combretastatin A-1 ([1]; PS cell line): three-fold less active

Structure (SMILES): COc1ccc(/C=C\c2cc(OC)c(OC)c(OC)c2)c(O)c1O [Combretastatin A-1]
IC50 ([1]; P388 (PS) cell line): 0.99 µg/mL (≈ 2.98 µM)
interactions with tubulin in words (tubulin [2]): more active than combretastatin B-1; also recorded: significantly more potent than the previously described combretastatin
inhibition of binding of (3H)colchicine to tubulin in words (tubulin [3]): particularly potent
colchicine binding, % of control (tubulin [3]): 2.2 % of control
IC50 (tubulin [4]; [7]): 2000 nM
inhibition of microtubule assembly / tubulin polymerization in words (tubulin [4]): more potent than combretastatin and the well known tubulin inhibitors colchicine and podophylotoxin
inhibition of microtubule assembly / tubulin polymerization in words (tubulin [4]; listed as combretastatins A-1): comparable to that observed with podophyllotoxin and greater than that observed with colchicine and steganacin
concentration completely inhibiting microtubulin assembly in vitro (tubulin [4]; complete inhibition): less than 1.5 μmolar
increase in life extension [5]: 26-29%

Structure (SMILES): COc1ccc(/C=C\c2cc(OC)c3c(c2)OCO3)cc1O [Combretastatin A-2]
IC50 ([1]; P388 (PS) cell line): 0.027 µg/mL (≈ 0.0899 µM)

Structure (SMILES): COc1ccc(/C=C\c2cc(O)c(OC)c(OC)c2)cc1O [Combretastatin A-3]
IC50 ([1]; P388 (PS) cell line): 0.026 µg/mL (≈ 0.086 µM)

Structure (SMILES): COc1ccc(C[C@@H](O)c2cc(OC)c(OC)c(OC)c2)cc1O [Combretastatin, R(-)-1-(3,4,5-tri-methoxyphenyl)-2-(3'-hydroxy, 4'-methoxyphenyl)-ethanol]
colchicine binding, % of control (tubulin [3]): 34 % of control
IC50 (tubulin [4]; [7]): 11000 nM
mode of inhibition of binding of radiolabeled colchicine (tubulin [6]): competitive inhibitors
astrocyte reversal (NCI astrocytoma): pronounced astrocyte reversal

Structure (SMILES): COc1cc([C@@H]2c3cc4c(cc3[C@H](O)[C@H]3COC(=O)[C@H]23)OCO4)cc(OC)c1OC [Podophyllotoxin, reference compound]
colchicine binding, % of control (tubulin [3]): 13 % of control
mode of inhibition of binding of radiolabeled colchicine (tubulin [6]): competitive inhibitors

Structure (SMILES): COc1cc2c(c(OC)c1OC)-c1cc3c(cc1C(OC(C)=O)[C@H]1COC(=O)[C@@H]1C2)OCO3 (stereo partly drawn) [Steganacin, reference compound]
colchicine binding, % of control (tubulin [3]): 49 % of control
IC50 (tubulin [4]; [8]): 6000 nM
mode of inhibition of binding of radiolabeled colchicine (tubulin [6]): competitive inhibitors

Structure (SMILES): COc1cc(/C=C/c2ccc(OC)c(OC(C)=O)c2OC(C)=O)cc(OC)c1OC [trans-isomer counter part, 2',3'-diacetoxy-4'-methoxy-E-combretastatin A-1]
IC50 ([1]; P388 (PS) cell line): 12 µg/mL (≈ 28.8 µM)
PS cell line activity in words ([1]; P388 (PS) cell line): essentially inactive

Continued, in another order:

IC50 ([1]; P388 (PS) cell line): 1.7 µg/mL (≈ 5.08 µM)
inhibition of binding of (3H)colchicine to tubulin in words (tubulin [3]): particularly potent
colchicine binding, % of control (tubulin [3]): 13 % of control
IC50 (tubulin [4]; [7]): 3000 nM
Structure (SMILES): COc1ccc(CCc2cc(OC)c(OC)c(OC)c2)c(O)c1O [Combretastatin B-1]
interactions with tubulin in words (tubulin [2]): significantly more potent than the previously described combretastatin
inhibition of microtubule assembly / tubulin polymerization in words (tubulin [4]): comparable to that observed with podophyllotoxin and greater than that observed with colchicine and steganacin

IC50 ([1]; P388 (PS) cell line): 0.32 µg/mL (≈ 1.05 µM)
Structure (SMILES): COc1ccc(CCc2cc(O)c(OC)c(OC)c2)cc1O [Combretastatin B-2]

IC50 ([1]; P388 (PS) cell line): 0.4 µg/mL (≈ 1.31 µM)
Structure (SMILES): COc1cc(CCc2ccc(O)c(O)c2)cc(OC)c1OC [Combretastatin B-3]

IC50 ([1]; P388 (PS) cell line): 1.7 µg/mL (≈ 6.2 µM)
Structure (SMILES): COc1cc(CCc2ccc(O)c(O)c2)cc(OC)c1 [Combretastatin B-4]
